Test results published in PubChem BioAssay AID256 (DTP/NCI, 2004).
Several values for one entry are separate records, joined by “and”; a condition that tells them apart may be missing. Equal entries are not always repeated. Inconclusive results and toxic doses are left out.

System: CD2F1 mice, L1210 leukemia ip, survival T/C
Assay: NCI In Vivo Anticancer Drug Screen. Data for tumor model L1210 Leukemia (intraperitoneal) in CD2F1 (CDF1) mice
Conditions: higher = longer survival
Method in brief: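 Ratio T/C, where T is the treated-group value and C the vehicle-dosed control value, from mice implanted with a transplantable tumor.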

[1] = endpoint: mean survival time, dose: 100.0 mg/kg/injection, schedule: Q01DX001 (ip), vehicle: saline with Tween-80
[2] = endpoint: mean survival time, dose: 100.0 mg/kg/injection, schedule: Q01DX009 (ip), vehicle: saline with Tween-80
[3] = endpoint: mean survival time, dose: 100.0 mg/kg/injection, schedule: Q04DX003 (ip), vehicle: saline with Tween-80
[4] = endpoint: mean survival time, dose: 200.0 mg/kg/injection, schedule: Q01DX001 (ip), vehicle: saline with Tween-80
[5] = endpoint: mean survival time, dose: 200.0 mg/kg/injection, schedule: Q01DX009 (ip), vehicle: saline with Tween-80
[6] = endpoint: mean survival time, dose: 200.0 mg/kg/injection, schedule: Q04DX003 (ip), vehicle: saline with Tween-80
[7] = endpoint: mean survival time, dose: 400.0 mg/kg/injection, schedule: Q01DX001 (ip), vehicle: saline with Tween-80
[8] = endpoint: mean survival time, dose: 400.0 mg/kg/injection, schedule: Q01DX009 (ip), vehicle: saline with Tween-80
[9] = endpoint: mean survival time, dose: 400.0 mg/kg/injection, schedule: Q04DX003 (ip), vehicle: saline with Tween-80
[10] = endpoint: mean survival time, dose: 50.0 mg/kg/injection, schedule: Q01DX009 (ip), vehicle: saline with Tween-80
[11] = endpoint: mean survival time, dose: 25.0 mg/kg/injection, schedule: Q01DX009 (ip), vehicle: saline with Tween-80
[12] = endpoint: mean survival time, dose: 6.25 mg/kg/injection, schedule: Q04DX003 (ip), vehicle: saline
[13] = endpoint: mean survival time, dose: 25.0 mg/kg/injection, schedule: Q04DX003 (ip), vehicle: saline with Tween-80
[14] = endpoint: mean survival time, dose: 100.0 mg/kg/injection, schedule: Q04DX003 (ip), vehicle: saline
[15] = endpoint: mean survival time, dose: 12.5 mg/kg/injection, schedule: Q04DX003 (ip), vehicle: saline with Tween-80

## Clc1nc(Oc2ccccc2)nc(-c2cn(-c3ccccc3)c3ccccc23)n1
[1]
  T/C: 98 % of control
[2]
  T/C: 95 % of control
[3]
  T/C: 102 % of control
[4]
  T/C: 102 % of control
[5]
  T/C: 101 % of control
[6]
  T/C: 98 % of control
[7]
  T/C: 102 % of control
[8]
  T/C: 97 % of control
[9]
  T/C: 101 % of control

## COc1cc(OC)c(NC(=O)Oc2ccc(C=O)cc2OC)cc1Cl
[10]
  T/C: 86 % of control
[2]
  T/C: 96 % of control

## CCCCCCCCCCCC[N+]1(C)CCOCC1
endpoint: mean survival time, dose: 12.5 mg/kg/injection, schedule: Q01DX009 (ip), vehicle: Klucel (hydroxypropylcellulose) (HPC)
  T/C: 102 % of control
endpoint: mean survival time, dose: 25.0 mg/kg/injection, schedule: Q01DX009 (ip), vehicle: Klucel (hydroxypropylcellulose) (HPC)
  T/C: 98 % of control
endpoint: mean survival time, dose: 50.0 mg/kg/injection, schedule: Q01DX009 (ip), vehicle: Klucel (hydroxypropylcellulose) (HPC)
  T/C: 98 % of control

## O=C(CN1CCCCC1Cl)c1ccccc1 (stereo not given)
[11]
  T/C: 102 % of control
[10]
  T/C: 96 % of control
[2]
  T/C: 102 % of control

## CCC([NH-])(CC)C[NH-].[Cl][Pt+2][Cl]
endpoint: mean survival time, dose: 0.39 mg/kg/injection, schedule: Q04DX003 (ip), vehicle: saline with Tween-80
  T/C: 101 % of control
endpoint: mean survival time, dose: 0.79 mg/kg/injection, schedule: Q04DX003 (ip), vehicle: saline with Tween-80
  T/C: 102 % of control
endpoint: mean survival time, dose: 1.56 mg/kg/injection, schedule: Q04DX003 (ip), vehicle: saline with Tween-80
  T/C: 107 % of control
endpoint: mean survival time, dose: 3.12 mg/kg/injection, schedule: Q04DX003 (ip), vehicle: saline with Tween-80
  T/C: 108 % of control
endpoint: mean survival time, dose: 3.13 mg/kg/injection, schedule: Q04DX003 (ip), vehicle: saline
  T/C: 232 % of control
[12]
  T/C: 208 % of control
[13]
  T/C: 111 % of control

## CCOC(=O)c1cc2ccccc2oc1=O
[11]
  T/C: 100 % of control
[10]
  T/C: 97 % of control
[2]
  T/C: 109 % of control

## CC(=O)C1CCC2C3=CC=C4CC(OC(=O)CCC(C)C)CCC4(C)C3CCC12C (stereo not given)
[2]
  T/C: 105 % of control
[5]
  T/C: 97 % of control
[8]
  T/C: 101 % of control

## O=c1nc(NCC23CC4CC(CC(C4)C2)C3)ccn1C1OC(CO)C(O)C1O (stereo not given)
endpoint: median survival time, dose: 12.5 mg/kg/injection, schedule: Q01DX005 (ip), vehicle: distilled water + Tween-80
  T/C: 100 % of control
endpoint: median survival time, dose: 25.0 mg/kg/injection, schedule: Q01DX005 (ip), vehicle: distilled water + Tween-80
  T/C: 101 % of control
endpoint: median survival time, dose: 50.0 mg/kg/injection, schedule: Q01DX005 (ip), vehicle: distilled water + Tween-80
  T/C: 101 % of control
endpoint: median survival time, dose: 100.0 mg/kg/injection, schedule: Q01DX005 (ip), vehicle: distilled water + Tween-80
  T/C: 94 % of control
endpoint: median survival time, dose: 200.0 mg/kg/injection, schedule: Q01DX005 (ip), vehicle: distilled water + Tween-80
  T/C: 91 % of control

## NS(=O)(=O)c1ccc(NC(=O)Oc2ccc([N+](=O)[O-])cc2)cc1
[1]
  T/C: 93 % of control
[4]
  T/C: 93 % of control
[7]
  T/C: 101 % of control

## NC1=NCNC(=O)N1
[12]
  T/C: 102 % of control
endpoint: mean survival time, dose: 12.5 mg/kg/injection, schedule: Q04DX003 (ip), vehicle: saline
  T/C: 91 % of control
endpoint: mean survival time, dose: 25.0 mg/kg/injection, schedule: Q04DX003 (ip), vehicle: saline
  T/C: 93 % of control
endpoint: mean survival time, dose: 50.0 mg/kg/injection, schedule: Q04DX003 (ip), vehicle: saline
  T/C: 98 % of control
[14]
  T/C: 96 % of control
endpoint: mean survival time, dose: 200.0 mg/kg/injection, schedule: Q04DX003 (ip), vehicle: saline
  T/C: 96 % of control
endpoint: mean survival time, dose: 400.0 mg/kg/injection, schedule: Q04DX003 (ip), vehicle: saline
  T/C: 98 % of control

## Nc1ccc(/C=C/C(=O)Nc2ccc(S(=O)(=O)F)cc2)cc1
[1]
  T/C: 98 % of control
[4]
  T/C: 95 % of control

## CC1OC(n2cc(Br)c(=O)[nH]c2=O)C(O)C(O)C1O (stereo not given)
endpoint: mean survival time, dose: 12.5 mg/kg/injection, schedule: Q01DX005 (ip), vehicle: water
  T/C: 99 % of control
endpoint: mean survival time, dose: 25.0 mg/kg/injection, schedule: Q01DX005 (ip), vehicle: water
  T/C: 101 % of control
endpoint: mean survival time, dose: 50.0 mg/kg/injection, schedule: Q01DX005 (ip), vehicle: water
  T/C: 105 % of control
endpoint: mean survival time, dose: 100.0 mg/kg/injection, schedule: Q01DX005 (ip), vehicle: water
  T/C: 100 % of control
endpoint: mean survival time, dose: 200.0 mg/kg/injection, schedule: Q01DX005 (ip), vehicle: water
  T/C: 99 % of control

## C(=NCCN1CCOCC1)=NC1CCCCC1
endpoint: mean survival time, dose: 3.13 mg/kg/injection, schedule: Q01DX009 (ip), vehicle: saline with Tween-80
  T/C: 102 % of control
endpoint: mean survival time, dose: 6.25 mg/kg/injection, schedule: Q01DX009 (ip), vehicle: saline with Tween-80
  T/C: 91 % of control
endpoint: mean survival time, dose: 6.25 mg/kg/injection, schedule: Q04DX003 (ip), vehicle: saline with Tween-80
  T/C: 100 % of control
endpoint: mean survival time, dose: 12.5 mg/kg/injection, schedule: Q01DX009 (ip), vehicle: saline with Tween-80
  T/C: 104 % of control
[15]
  T/C: 92 % of control

## COc1cc2c(cc1OC)C(CCN)=NCC2
endpoint: mean survival time, dose: 25.0 mg/kg/injection, schedule: Q01DX009 (ip), vehicle: saline sonified
  T/C: 98 % of control
endpoint: mean survival time, dose: 50.0 mg/kg/injection, schedule: Q01DX009 (ip), vehicle: saline sonified
  T/C: 98 % of control
endpoint: mean survival time, dose: 100.0 mg/kg/injection, schedule: Q01DX009 (ip), vehicle: saline sonified
  T/C: 93 % of control
[14]
  T/C: 97 % of control

## O=C(NO)Nc1ccc(Cl)cc1
endpoint: mean survival time, dose: 8.0 mg/kg/injection, schedule: Q03HX024 (ip), vehicle: other
  T/C: 95 % of control
endpoint: mean survival time, dose: 16.0 mg/kg/injection, schedule: Q03HX024 (ip), vehicle: other
  T/C: 92 % of control
endpoint: mean survival time, dose: 32.0 mg/kg/injection, schedule: Q03HX024 (ip), vehicle: other
  T/C: 95 % of control
endpoint: mean survival time, dose: 62.0 mg/kg/injection, schedule: Q03HX024 (ip), vehicle: saline with Tween-80
  T/C: 106 % of control
endpoint: mean survival time, dose: 64.0 mg/kg/injection, schedule: Q03HX024 (ip), vehicle: other
  T/C: 93 % of control
endpoint: mean survival time, dose: 93.0 mg/kg/injection, schedule: Q03HX024 (ip), vehicle: saline with Tween-80
  T/C: 100 % of control
[3]
  T/C: 97 % of control
endpoint: mean survival time, dose: 128.0 mg/kg/injection, schedule: Q03HX024 (ip), vehicle: other
  T/C: 96 % of control
[6]
  T/C: 100 % of control
[9]
  T/C: 95 % of control

## O=c1ncccn1[C@@H]1O[C@H](CO)[C@H](O)C1O (stereo not given in full)
endpoint: median survival time, dose: 25.0 mg/kg/injection, schedule: Q01DX009 (ip), vehicle: saline
  T/C: 114 % of control and 109 % of control
endpoint: median survival time, dose: 75.0 mg/kg/injection, schedule: Q04DX003 (ip), vehicle: saline
  T/C: 102 % of control
endpoint: median survival time, dose: 100.0 mg/kg/injection, schedule: Q01DX009 (oral), vehicle: saline
  T/C: 102 % of control
endpoint: median survival time, dose: 125.0 mg/kg/injection, schedule: Q01DX001 (oral), vehicle: saline
  T/C: 101 % of control
endpoint: median survival time, dose: 150.0 mg/kg/injection, schedule: Q04DX003 (ip), vehicle: saline
  T/C: 106 % of control
endpoint: median survival time, dose: 200.0 mg/kg/injection, schedule: Q01DX009 (oral), vehicle: saline
  T/C: 110 % of control
endpoint: median survival time, dose: 250.0 mg/kg/injection, schedule: Q01DX001 (oral), vehicle: saline
  T/C: 102 % of control
endpoint: median survival time, dose: 300.0 mg/kg/injection, schedule: Q04DX003 (ip), vehicle: saline
  T/C: 111 % of control
endpoint: median survival time, dose: 500.0 mg/kg/injection, schedule: Q01DX001 (oral), vehicle: saline
  T/C: 105 % of control
endpoint: median survival time, dose: 600.0 mg/kg/injection, schedule: Q04DX003 (ip), vehicle: saline
  T/C: 114 % of control
endpoint: median survival time, dose: 800.0 mg/kg/injection, schedule: Q01DX009 (oral), vehicle: saline
  T/C: 177 % of control
endpoint: median survival time, dose: 1000.0 mg/kg/injection, schedule: Q01DX001 (oral), vehicle: saline
  T/C: 107 % of control
endpoint: median survival time, dose: 1200.0 mg/kg/injection, schedule: Q04DX003 (ip), vehicle: saline
  T/C: 113 % of control
endpoint: median survival time, dose: 1600.0 mg/kg/injection, schedule: Q01DX009 (oral), vehicle: saline
  T/C: 212 % of control
endpoint: median survival time, dose: 2000.0 mg/kg/injection, schedule: Q01DX001 (oral), vehicle: saline
  T/C: 115 % of control

## COC(=O)C1C(O)C(C)C(O)C(C)(O)C=C(C)C2=C3C(=C(C)C(=O)c4c(O)c(c(C)c(OC(C)=O)c43)NC(=O)C(C)=C/C=C\C(C)(O)C(O)C(C)C1O)OCO2 (stereo not given)
[15]
  T/C: 96 % of control
[13]
  T/C: 101 % of control
endpoint: mean survival time, dose: 50.0 mg/kg/injection, schedule: Q04DX003 (ip), vehicle: saline with Tween-80
  T/C: 101 % of control
[3]
  T/C: 111 % of control
